Here are results for 22 molecules from patent US20260137677A1, “PROTACS USEFUL AGAINST THE MAIN PROTEASE SARS-COV-2” (Tocris Cookson Limited, priority 2022, published 2026).

The target in assay [1] is T1, recombinant SARS-CoV-2 main protease (Mpro) (Severe acute respiratory syndrome coronavirus 2, UniProt P0DTD1).
T1 construct: the main protease (Mpro; also called 3CLpro) which has an essential role in processing the polyproteins
Kind of assay: biochemical. The following applies: FRET assay, Mpro 50 nM, substrate 10 μM.

Assay [2] concerns SARS-CoV-2 (SARS-CoV2/ZG/297-20) in Vero E6 cells. Kind of assay: microbe, parasite or virus in culture. In kind it is cell-based. The conditions noted are these: for inhibition at 10 µM / inhibition at 50 µM: Severe acute respiratory syndrome coronavirus 2, Vero C1008, 72 h; for inhibition at 10 µM: read-out: Antiviral Activity 10 uM; for inhibition at 50 µM: read-out: Antiviral Activity 50 uM.

Assay [3] shares this test system. The assay can be described thus: Plaque reduction assay in Vero E6 cells. The format is cell-based. A general note: Plaques are areas of infected cells; plaque reduction assays count them against a control.

Like-named read-outs stand apart in the source and are kept apart here. Bounds are passed on as bounds.

As to `O=C1CCC(N2C(=O)c3cccc(OCCCCCCCCNC(=O)c4ccc5cncc(N6C(=O)NC7(CC(c8ccccc8Cl)C7)C6=O)c5c4)c3C2=O)C(=O)N1` (stereo not shown) [Compound C10778N, 4-(2-(2-chlorophenyl)-6,8-dioxo-5,7-diazaspiro[3.4]octan-7-yl)-N-(8-((2-(2,6-dioxopiperidin-3-yl)-1,3-dioxoisoindolin-4-yl)oxy)octyl)isoquinoline-6-carboxamide], in assay [1], the IC50 was less than 100 nM. In assay [2], the inhibition at 10 µM is less than 75% and the inhibition at 50 µM was more than 75%. Also, in assay [2] (Severe acute respiratory syndrome coronavirus 2, Vero C1008, Vero E6 infected with SARS-CoV-2 at an MOI of 0.05, read-out: EC50 in antiviral assay), the EC50 is 1700 nM. Also, in assay [3], the “reduction of viable virus in plaque reduction assay (in words)” value is given as “efficiently reduces viable virus”.

As to `O=C1CCC(N2C(=O)c3cccc(NCCCCNC(=O)[C@@H](NC(=O)C(c4cccnc4)N(C(=O)c4ccco4)c4ccc5c(c4)oc4ccccc45)c4ccccc4)c3C2=O)C(=O)N1` (mixture of isomers) [TS313F1], the IC50 in assay [1] was less than 1000 nM. Besides, in assay [2], the inhibition at 10 µM is less than 25% and the inhibition at 50 µM is less than 0%.

As for `O=C1CCC(N2C(=O)c3cccc(NCCOCCOCCOCCOCCNC(=O)C(NC(=O)[C@@H](c4cccnc4)N(C(=O)c4ccco4)c4ccc5c(c4)oc4ccccc45)c4ccccc4)c3C2=O)C(=O)N1` (mixture of isomers) [TS303F1], the IC50 in assay [1] is less than 1000 nM. Moreover, in assay [2], the inhibition at 10 µM is less than 0% and the inhibition at 50 µM was less than 0%.

On to `O=C1CCC(N2C(=O)c3cc(F)c(N4CCN(C(=O)[C@H](NC(=O)[C@@H](c5cccnc5)N(C(=O)c5ccco5)c5ccc(-c6ccccc6)cc5)c5ccccc5)CC4)cc3C2=O)C(=O)N1` (single isomer, unassigned) [TS467], for which, in assay [1], the half-inhibitory concentration (IC50) was less than 100 nM. In assay [2], the inhibition at 10 µM is less than 25% and the inhibition at 50 µM is less than 25%.

Take `O=C(COc1ccc(C2CCC(=O)NC2=O)cc1)NCCNC(=O)[C@H](NC(=O)[C@@H](c1cccnc1)N(C(=O)c1ccco1)c1ccc(-c2ccccc2)cc1)c1ccccc1` (single isomer, unassigned) [TS476]: the IC50 in assay [1] is less than 100 nM. In addition, in assay [2], the inhibition at 10 µM is less than 0% and the inhibition at 50 µM is less than 0%.

`O=C1CCC(N2C(=O)c3cccc(OCCCCCCNC(=O)c4ccc5cncc(N6C(=O)NC7(CC(c8ccccc8Cl)C7)C6=O)c5c4)c3C2=O)C(=O)N1` (stereo not shown) [Compound C10778L, 4-(2-(2-chlorophenyl)-6,8-dioxo-5,7-diazaspiro[3.4]octan-7-yl)-N-(6-((2-(2,6-dioxopiperidin-3-yl)-1,3-dioxoisoindolin-4-yl)oxy)hexyl)isoquinoline-6-carboxamide]: the IC50 in assay [1] is less than 100 nM. Besides, in assay [2], the inhibition at 10 µM was less than 25% and the inhibition at 50 µM was less than 25%.

Regarding `O=C1CCC(N2C(=O)c3ccc(NCCCCCCNC(=O)c4ccc5c(N6C(=O)NC7(CC(c8ccccc8Cl)C7)C6=O)cncc5c4)cc3C2=O)C(=O)N1` (stereo not shown) [Compound C10778W, 4-(2-(2-chlorophenyl)-6,8-dioxo-5,7-diazaspiro[3.4]octan-7-yl)-N-(6-((2-(2,6-dioxopiperidin-3-yl)-1,3-dioxoisoindolin-5-yl)amino)hexyl)isoquinoline-7-carboxamide], the IC50 in assay [1] is less than 1000 nM. Moreover, in assay [2], the inhibition at 10 µM is less than 0% and the inhibition at 50 µM was less than 0%.

In the case of `O=C1CCC(N2C(=O)c3cccc(NCCNC(=O)[C@@H](NC(=O)[C@@H](c4cccnc4)N(C(=O)c4ccco4)c4ccc5c(c4)oc4ccccc45)c4ccccc4)c3C2=O)C(=O)N1` (mixture of isomers) [TS365F1], the IC50 in assay [1] was less than 1000 nM. In addition, in assay [2], the inhibition at 10 µM is less than 75% and the inhibition at 50 µM was less than 25%.

`O=C1CCC(N2C(=O)c3cccc(NCCOCCOCCNC(=O)C(NC(=O)C(c4cccnc4)N(C(=O)c4ccco4)c4ccc(-c5ccccc5)cc4)c4ccccc4)c3C2=O)C(=O)N1` (single isomer, unassigned) [TS454F1]: the IC50 in assay [1] was less than 1000 nM. Moreover, in assay [2], the inhibition at 10 µM is less than 0% and the inhibition at 50 µM is less than 0%.

As to `O=C1CCC(N2C(=O)c3cccc(OCCCCCCCC(=O)Nc4cccn([C@@H](CC5CC5)C(=O)N[C@@H](C[C@@H]5CCNC5=O)C(=O)C(=O)NCc5ccccc5)c4=O)c3C2=O)C(=O)N1` (stereo partly shown) [BT152], the IC50 in assay [1] was less than 1000 nM. In assay [2], the inhibition at 10 µM is less than 25% and the inhibition at 50 µM is less than 50%.

`O=C1CCC(N2C(=O)c3cccc(OCCOCCOCCOCCNC(=O)c4ccc5c(N6C(=O)NC7(CC(c8ccccc8Cl)C7)C6=O)cncc5c4)c3C2=O)C(=O)N1` (stereo not shown) [Compound C10778Y, 4-(2-(2-chlorophenyl)-6,8-dioxo-5,7-diazaspiro[3.4]octan-7-yl)-N-(2-(2-(2-(2-((2-(2,6-dioxopiperidin-3-yl)-1,3-dioxoisoindolin-4-yl)oxy)ethoxy)ethoxy)ethoxy)ethyl)isoquinoline-7-carboxamide]: the IC50 in assay [1] is less than 100 nM. Further, in assay [2], the inhibition at 10 µM is less than 25% and the inhibition at 50 µM is less than 50%.

As to `O=C1CCC(N2C(=O)c3cccc(OCCCCCCCCNC(=O)c4ccc5c(N6C(=O)NC7(CC(c8ccccc8Cl)C7)C6=O)cncc5c4)c3C2=O)C(=O)N1` (stereo not shown) [Compound C10778T, 4-(2-(2-chlorophenyl)-6,8-dioxo-5,7-diazaspiro[3.4]octan-7-yl)-N-(8-((2-(2,6-dioxopiperidin-3-yl)-1,3-dioxoisoindolin-4-yl)oxy)octyl)isoquinoline-7-carboxamide], the IC50 in assay [1] was less than 100 nM. Besides, in assay [2], the inhibition at 10 µM is less than 0% and the inhibition at 50 µM was less than 0%.

Consider `O=C1CCC(N2C(=O)c3cccc(OCCCCNC(=O)c4ccc5c(N6C(=O)NC7(CC(c8ccccc8Cl)C7)C6=O)cncc5c4)c3C2=O)C(=O)N1` (stereo not shown) [Compound C10778U, 4-(2-(2-chlorophenyl)-6,8-dioxo-5,7-diazaspiro[3.4]octan-7-yl)-N-(4-((2-(2,6-dioxopiperidin-3-yl)-1,3-dioxoisoindolin-4-yl)oxy)butyl)isoquinoline-7-carboxamide], for which the IC50 in assay [1] was less than 100 nM. Besides, in assay [2], the inhibition at 10 µM is less than 25% and the inhibition at 50 µM was less than 25%.

With `O=C1CCC(N2C(=O)c3ccc(N4CCN(C(=O)[C@H](NC(=O)[C@@H](c5cccnc5)N(C(=O)c5ccco5)c5ccc(-c6ccccc6)cc5)c5ccccc5)CC4)cc3C2=O)C(=O)N1` (single isomer, unassigned) [TS466], the IC50 in assay [1] was less than 100 nM. For the same molecule, in assay [2], the inhibition at 10 µM was less than 0% and the inhibition at 50 µM is less than 0%.

As for `O=C1CCC(N2C(=O)c3cccc(NCCCCCCNC(=O)[C@@H](NC(=O)C(c4cccnc4)N(C(=O)c4ccco4)c4ccc5c(c4)oc4ccccc45)c4ccccc4)c3C2=O)C(=O)N1` (stereo partly shown) [TS296], the IC50 in assay [1] was more than 25000 nM. In addition, in assay [2], the inhibition at 10 µM is less than 0% and the inhibition at 50 µM is less than 0%.

For the molecule `O=C1CCC(N2C(=O)c3cccc(NCCCNC(=O)[C@@H](NC(=O)C(c4cccnc4)N(C(=O)c4ccco4)c4ccc5c(c4)oc4ccccc45)c4ccccc4)c3C2=O)C(=O)N1` (stereo partly shown) [TS284F2], the IC50 in assay [1] was less than 10000 nM. Moreover, in assay [2], the inhibition at 10 µM is less than 0% and the inhibition at 50 µM was less than 0%.

With `O=C1CCC(N2C(=O)c3cccc(NCCCCNC(=O)[C@H](NC(=O)[C@@H](c4cccnc4)N(C(=O)c4ccco4)c4ccc(-c5ccccc5)cc4)c4ccccc4)c3C2=O)C(=O)N1` (mixture of isomers) [TS451F1], the half-maximal inhibitory concentration (IC50) in assay [1] was less than 10000 nM. Moreover, in assay [2], the inhibition at 10 µM is less than 0% and the inhibition at 50 µM is less than 0%.

`O=C1CCC(N2C(=O)c3cccc(OCCCCCCCCC(=O)Nc4cccn([C@@H](CC5CC5)C(=O)N[C@@H](C[C@@H]5CCNC5=O)C(=O)C(=O)NCc5ccccc5)c4=O)c3C2=O)C(=O)N1` (stereo partly drawn) [BT153, N-(1-((S)-1-(((S)-4-(benzylamino)-3,4-dioxo-1-((S)-2-oxopyrrolidin-3-yl)butan-2-yl)amino)-3-cyclopropyl-1-oxopropan-2-yl)-2-oxo-1,2-dihydropyridin-3-yl)-9-((2-(2,6-dioxopiperidin-3-yl)-1,3-dioxoisoindolin-4-yl)oxy)nonanamide]: in assay [1], the IC50 was less than 100 nM. Besides, in assay [2], the inhibition at 10 µM was less than 75% and the inhibition at 50 µM is less than 75%. Besides, in assay [2] (Severe acute respiratory syndrome coronavirus 2, Vero C1008, read-out: EC50 in antiviral assay), the EC50 came to 3200 nM. The “reduction of viable virus in plaque reduction assay (in words)” value in assay [3] was “efficient reduction of viable virus”.

`O=C1CCC(N2C(=O)c3cccc(NCCCCCCCCNC(=O)[C@@H](NC(=O)C(c4cccnc4)N(C(=O)c4ccco4)c4ccc5c(c4)oc4ccccc45)c4ccccc4)c3C2=O)C(=O)N1` (mixture of isomers) [TS369F1]: the IC50 in assay [1] is more than 25000 nM. In addition, in assay [2], the inhibition at 10 µM was less than 25% and the inhibition at 50 µM was less than 25%.

On to `O=C1CCC(N2C(=O)c3cccc(NCCOCCOCCOCCNC(=O)C(NC(=O)[C@@H](c4cccnc4)N(C(=O)c4ccco4)c4ccc5c(c4)oc4ccccc45)c4ccccc4)c3C2=O)C(=O)N1` (mixture of isomers) [TS297F1], for which the IC50 in assay [1] is less than 1000 nM. In assay [2], the inhibition at 10 µM was less than 0% and the inhibition at 50 µM was less than 0%.

For `O=C1CCC(N2C(=O)c3cccc(NCCCNC(=O)[C@@H](NC(=O)[C@@H](c4cccnc4)N(C(=O)c4ccco4)c4ccc(-c5ccccc5)cc4)c4ccccc4)c3C2=O)C(=O)N1` (single isomer, unassigned) [TS450F1], the IC50 in assay [1] is less than 1000 nM. In addition, in assay [2], the inhibition at 10 µM is less than 0% and the inhibition at 50 µM was less than 0%.

Consider `O=C1CCC(N2C(=O)c3cc(F)c(N4CCN(CC5CCN(C(=O)[C@H](NC(=O)[C@@H](c6cccnc6)N(C(=O)c6ccco6)c6ccc(-c7ccccc7)cc6)c6ccccc6)CC5)CC4)cc3C2=O)C(=O)N1` (single isomer, unassigned) [TS471], for which the half-inhibitory concentration (IC50) in assay [1] was less than 1000 nM. Besides, in assay [2], the inhibition at 10 µM was less than 25% and the inhibition at 50 µM was less than 25%.

A word on the IC50: it is the midpoint of a concentration-inhibition curve. A word on the EC50: it is the concentration giving half of the maximal effect.
